The record followed here is patent EP4768484A1, “HETEROCYCLIC FUSED RING COMPOUND, AND COMPOSITION AND USE THEREOF” (Shenzhen TargetRx, Inc., priority 2023, dated 2025).

Assay type in all cases: cell-based
One assay has as its target T1, Ba/F3 BCR-ABL1 WT (Homo sapiens, UniProt P00519+P11274).
T1 construct: BCR (N-terminal fusion partner of the oncoprotein); expressed in transfected cells; host or cells: Ba/F3 (lentiviral transduction, monoclonal line)
Nature of the assay: Cell growth inhibitory activity assay (CellTiter-Glo), Ba/F3 BCR-ABL1 WT cells. As to conditions: 72 h, CTG cell viability. The gist of the method: (§1)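 Ba/F3 lines stably transduced by lentivirus with WT or mutant BCR-ABL1, alongside untransduced parental Ba/F3, were seeded and incubated overnight at 37 °C, 5% CO2, then exposed to serially diluted compound for 72 h. Viability was read as ATP by CellTiter-Glo luminescence against a day-of-dosing T0 plate; IC50 from four-parameter nonlinear fit.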
(In general: Cellular ATP, detected with luciferase, serves as a proxy for viable cell number.)

The next assay has as its target T2, Ba/F3 BCR-ABL1 A424T (Homo sapiens, UniProt P00519+P11274, A424T).
T2 construct: BCR (N-terminal fusion partner of the oncoprotein); expressed in transfected cells; host or cells: Ba/F3 (lentiviral transduction, monoclonal line)
Nature of the assay: Cell growth inhibitory activity assay (CellTiter-Glo), Ba/F3 BCR-ABL1 A424T cells. As to conditions: 72 h, CTG cell viability. Here is the method: (§2) In this assay, the Celltiter-Glo (CTG) kit provided by Promega was used, and it is a homogeneous cell viability assay method. The cell viability of cultured cells was measured by quantifying ATP. K562 cells were purchased from Nanjing Kebai, product number CBP60529; Ba/F3 parental cells were purchased from RIKEN BRC, product number RCB0805; other cells containing BCR-ABL1 WT, BCR-ABL1 T315I, BCR-ABL1 T315M, BCR-ABL1 Y253H/E255K, BCR-ABL1 E255V/T3151, BCR-ABL1 A424T, BCR-ABL1 A337V, BCR-ABL1 P465S, BCR-ABL1 V468F, and BCR-ABL1 I502L were all monoclonal engineered cell lines obtained by transducting Ba/F3 parental cells with the lentivirus plasmids containing WT or corresponding mutated BCR-ABL1.
(§3) The steps of cell viability assay are as follows: • a) Cells in logarithmic growth phase were collected. Cell suspension was prepared and the cells were counted. Concentration of the cells was calculated. • b) The cell suspension was diluted to the required concentration and then added to the middle wells of a 96-well plate, and PBS was added to the edge wells. The wells with no cells and only culture medium were used as blank controls. • c) In addition to the cell plate used for compound analysis, another 96-well plate was prepared as a T0 plate, and 3-6 blank wells and 3-6 cell wells were added. The next day, CTG was used to test the cell viability as the T0 viability value of the cells. • d) The cell plate was incubated at 37 °C in a 5% CO2 incubator overnight. • e) The next day, each concentration of a compound subjected to a gradient dilution was added, and the cell plate was incubated at 37 °C in a 5% CO2 incubator for 72 h. The wells with no compound and only 0.5% DMSO were used as positive controls for cell growth. • f) CTG reagent (CellTiter-Glo kit) was added according to the manufacturer's instructions to test the cell viability value. • g) The plate was read using Biotek cytation3.0 microplate reader and the data were exported. • h) IC50 was calculated using GraphPad Prism 7.0 software.
(§4) The IC50 (half-maximal inhibitory concentration) of the compound was obtained using the following nonlinear fitting formula: Y = Bottom + (Top−Bottom)/(1+10^(∧)((LogIC50−X)*HillSlope)) [formula] • X: Log value of the compound concentration • Y: Inhibition rate (% inhibition) • Top: Maximum response • Bottom: Baseline response • HillSlope: Slope of the curve
(§5) The formula for calculating cell inhibition rate (inhibition rate %) was: [formula]

Assay [1] deals with T3, Ba/F3 BCR-ABL1 Y253H/E255K (Homo sapiens, UniProt P00519+P11274, E255K/Y253H).
T3 construct: BCR (N-terminal fusion partner of the oncoprotein); expressed in transfected cells; host or cells: Ba/F3 (lentiviral transduction, monoclonal line)
Kind of assay: Cell growth inhibitory activity assay (CellTiter-Glo), Ba/F3 BCR-ABL1 Y253H/E255K cells. As to conditions: 72 h, CTG cell viability. As for the experimental part:
as §2, §3, §4, §5

The next assay deals with T4, Ba/F3 BCR-ABL1 T315M (Homo sapiens, UniProt P00519+P11274, T315M).
T4 construct: BCR (N-terminal fusion partner of the oncoprotein); expressed in transfected cells; host or cells: Ba/F3 (lentiviral transduction, monoclonal line)
Nature of the assay: Cell growth inhibitory activity assay (CellTiter-Glo), Ba/F3 BCR-ABL1 T315M cells. Conditions: 72 h, CTG cell viability. The gist of the method:
as §1

For the next assay, the target named is T5, Ba/F3 BCR-ABL1 T315I (Homo sapiens, UniProt P00519+P11274, T315I).
T5 construct: BCR (N-terminal fusion partner of the oncoprotein); expressed in transfected cells; host or cells: Ba/F3 (lentiviral transduction, monoclonal line)
Nature of the assay: Cell growth inhibitory activity assay (CellTiter-Glo), Ba/F3 BCR-ABL1 T315I cells. Conditions: 72 h, CTG cell viability. The procedure, abridged: as §1

In assay [2] the target is T6, Ba/F3 BCR-ABL1 E255V/T315I (Homo sapiens, UniProt P00519+P11274, E255V/T315I).
T6 construct: BCR (N-terminal fusion partner of the oncoprotein); expressed in transfected cells; host or cells: Ba/F3 (lentiviral transduction, monoclonal line)
Kind of assay: Cell growth inhibitory activity assay (CellTiter-Glo), Ba/F3 BCR-ABL1 E255V/T315I cells. As to conditions: 72 h, CTG cell viability. Here is the method:
as §2, §3, §4, §5

Another assay has as its target T7, Ba/F3 BCR-ABL1 V468F (Homo sapiens, UniProt P00519+P11274, V468F).
T7 construct: BCR (N-terminal fusion partner of the oncoprotein); expressed in transfected cells; host or cells: Ba/F3 (lentiviral transduction, monoclonal line)
Nature of the assay: Cell growth inhibitory activity assay (CellTiter-Glo), Ba/F3 BCR-ABL1 V468F cells. As to conditions: 72 h, CTG cell viability. As for the experimental part:
as §2, §3, §4, §5

For another assay, the system named is K562 cells. Kind of assay: Cell growth inhibitory activity assay (CellTiter-Glo), K562 cells. As to conditions: Homo sapiens, 72 h, CTG cell viability. The procedure, abridged:
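Growth inhibition of human K562 cells, sourced from Nanjing Kebai (CBP60529), was assessed with Promega's CellTiter-Glo kit, which measures viability through ATP quantification. Log-phase cells went into the inner wells of 96-well plates, with PBS in edge wells, incubated overnight at 37 °C and 5% CO2, then exposed to serially diluted compound for 72 h.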

For the next assay, the target named is T8, Ba/F3 BCR-ABL1 A337V (Homo sapiens, UniProt P00519+P11274, A337V).
T8 construct: BCR (N-terminal fusion partner of the oncoprotein); expressed in transfected cells; host or cells: Ba/F3 (lentiviral transduction, monoclonal line)
Nature of the assay: Cell growth inhibitory activity assay (CellTiter-Glo), Ba/F3 BCR-ABL1 A337V cells. As to conditions: 72 h, CTG cell viability. As for the experimental part: as §2, §3, §4, §5

The next assay has as its target T9, Ba/F3 BCR-ABL1 P465S (Homo sapiens, UniProt P00519+P11274, P465S).
T9 construct: BCR (N-terminal fusion partner of the oncoprotein); expressed in transfected cells; host or cells: Ba/F3 (lentiviral transduction, monoclonal line)
Nature of the assay: Cell growth inhibitory activity assay (CellTiter-Glo), Ba/F3 BCR-ABL1 P465S cells. As to conditions: 72 h, CTG cell viability. Here is the method: as §2, §3, §4, §5

The next assay has as its system Ba/F3 parental cells. Kind of assay: Cell growth inhibitory activity assay (CellTiter-Glo), Ba/F3 parental cells. Conditions: Mus musculus, BaF3, 72 h, CTG cell viability, read-out: IC50 Ba/F3 BCR-ABL1 Parental. The gist of the method:
as §1

A further assay concerns the target T10, Ba/F3 BCR-ABL1 I502L (Homo sapiens, UniProt P00519+P11274, I502L).
T10 construct: BCR (N-terminal fusion partner of the oncoprotein); expressed in transfected cells; host or cells: Ba/F3 (lentiviral transduction, monoclonal line)
Nature of the assay: Cell growth inhibitory activity assay (CellTiter-Glo), Ba/F3 BCR-ABL1 I502L cells. Conditions: 72 h, CTG cell viability. As for the experimental part:
as §2, §3, §4, §5

Each structure is given as a SMILES string.

As for `[2H]C([2H])([2H])N1Cc2ncc(-c3cc(C(=O)Nc4ccc(OC(F)(F)Cl)cc4)cc4nc5n(c34)[C@H](C)COC5)cc2C1=O` [T-31, (R)-N-(4-(chlorodifluoromethoxy)phenyl)-4-methyl-6-(6-(methyl-d3)-5-oxo-6,7-dihydro-5H-pyrrolo[3,4-b]pyridin-3-yl)-3,4-dihydro-1H-benzo[4,5]imidazo[2,1-c][1,4]oxazine-8-carboxamide], the IC50 at Ba/F3 BCR-ABL1 WT was not above 5 nM; at Ba/F3 BCR-ABL1 A424T, 5 to 50 nM; in assay [1] it was 5 to 50 nM; against Ba/F3 BCR-ABL1 T315M it was 5 to 50 nM; against Ba/F3 BCR-ABL1 T315I, 5 to 50 nM; in assay [2] it was 5 to 50 nM. For the same molecule, the IC50 at Ba/F3 BCR-ABL1 V468F is 5 to 50 nM; in the assay with K562 cells, not above 5 nM; against Ba/F3 BCR-ABL1 A337V, 50 to 1000 nM; at Ba/F3 BCR-ABL1 P465S, 50 to 1000 nM; in the assay with Ba/F3 parental cells, more than 1000 nM; against Ba/F3 BCR-ABL1 I502L, 50 to 1000 nM.

`C[C@@H]1COCc2nc3cc(C(=O)Nc4ccc(OC(F)(F)Cl)cc4)cc(-c4cnc5c(c4)-c4nn(S(C)(=O)=O)cc4C5)c3n21` [T-42, (R)-N-(4-(chlorodifluoromethoxy)phenyl)-4-methyl-6-(2-(methylsulfonyl)-2,4-dihydropyrazolo[3',4':3,4]cyclopenta[1,2-b]pyridin-7-yl)-3,4-dihydro-1H-benzo[4,5]imidazo[2,1-c][1,4]oxazine-8-carboxamide]: the IC50 was not above 5 nM against Ba/F3 BCR-ABL1 WT; 50 to 1000 nM at Ba/F3 BCR-ABL1 A424T; 50 to 1000 nM in assay [1]; 50 to 1000 nM at Ba/F3 BCR-ABL1 T315M; 5 to 50 nM on Ba/F3 BCR-ABL1 T315I; 50 to 1000 nM in assay [2]. Besides, the IC50 is 50 to 1000 nM against Ba/F3 BCR-ABL1 V468F; not above 5 nM with K562 cells; 50 to 1000 nM at Ba/F3 BCR-ABL1 A337V; 50 to 1000 nM at Ba/F3 BCR-ABL1 P465S; more than 1000 nM in the assay on Ba/F3 parental cells; 50 to 1000 nM at Ba/F3 BCR-ABL1 I502L.

For the molecule `CC(C)n1cc2c(n1)-c1cc(-c3cc(C(=O)Nc4ccc(OC(F)(F)Cl)cc4)cc4nc5n(c34)[C@H](C)COC5)cnc1C2` [T-48, (R)-N-(4-(chlorodifluoromethoxy)phenyl)-6-(2-isopropyl-2,4-dihydropyrazolo[3',4':3,4]cyclopenta[1,2-b]pyridin-7-yl)-4-methyl-3,4-dihydro-1H-benzo[4,5]imidazo[2,1-c][1,4]oxazine-8-carboxamide], the IC50 against Ba/F3 BCR-ABL1 WT was not above 5 nM; at Ba/F3 BCR-ABL1 A424T, 5 to 50 nM; in assay [1] it was not above 5 nM; on Ba/F3 BCR-ABL1 T315M, more than 1000 nM; at Ba/F3 BCR-ABL1 T315I, not above 5 nM; in assay [2], not above 5 nM. In addition, the IC50 against Ba/F3 BCR-ABL1 V468F is 5 to 50 nM; with K562 cells it was not above 5 nM; against Ba/F3 BCR-ABL1 A337V it was 5 to 50 nM; against Ba/F3 BCR-ABL1 P465S, 50 to 1000 nM; in the assay on Ba/F3 parental cells, more than 1000 nM; at Ba/F3 BCR-ABL1 I502L, 5 to 50 nM.

With `C[C@@H]1COCc2nc3cc(C(=O)Nc4ccc(OC(F)(F)Cl)cc4)cc(-c4cnc5c(c4)-c4nn(CC(F)(F)F)cc4C5)c3n21` [T-49, (R)-N-(4-(chlorodifluoromethoxy)phenyl)-4-methyl-6-(2-(2,2,2-trifluoroethyl)-2,4-dihydropyrazolo[3',4':3,4]cyclopenta[1,2-b]pyridin-7-yl)-3,4-dihydro-1H-benzo[4,5]imidazo[2,1-c][1,4]oxazine-8-carboxamide], the IC50 was not above 5 nM against Ba/F3 BCR-ABL1 WT; not above 5 nM on Ba/F3 BCR-ABL1 A424T; not above 5 nM in assay [1]; 50 to 1000 nM against Ba/F3 BCR-ABL1 T315M; not above 5 nM at Ba/F3 BCR-ABL1 T315I; not above 5 nM in [2]. In addition, the IC50 against Ba/F3 BCR-ABL1 V468F is 5 to 50 nM; in the assay on K562 cells it was not above 5 nM; at Ba/F3 BCR-ABL1 A337V, 5 to 50 nM; on Ba/F3 BCR-ABL1 P465S, 5 to 50 nM; in the assay with Ba/F3 parental cells it was more than 1000 nM; against Ba/F3 BCR-ABL1 I502L it was 5 to 50 nM.
